Measurements taken from US20200032213A1, “CONDITIONALLY IMMORTALIZED CELLS AND METHODS FOR THEIR PREPARATION” (Academisch Ziekenhuis Leiden h.o.d.n. LUMC, priority 2017, published 2020).

Assays:
[1] = tested on: adipogenically differentiated murine clone 6 and 7 tBPAs; test: Adrenergic stimulation of adipogenically differentiated tBPAs (glycerol production, Ucp1 transcripts); format: cell-based
iaCMCs = test: Dox-dependent proliferation of iaCMCs (Ki-67 immunostaining, cell counting); format: cell-based, rat; settings: in the presence of Dox (100 ng/ml)
Experimental: Immunostaining of cultured cells was performed as previously described (Yu et al., 2016) using the following primary antibodies at a dilution of 1:200 in PBS containing 0.1% normal donkey serum (NDS; Sigma-Aldrich): mouse anti-LT (Santa Cruz Biotechnology, catalogue number: sc-147), rabbit anti-Ki-67 (Abcam, catalogue number: ab15580), mouse anti-α-actinin (Sigma-Aldrich, catalogue number: A7811), rabbit anti-MLC2a (Kubalak et al., 1994), rabbit anti-Cx43 (Sigma-Aldrich, catalogue number: C6219) and rabbit anti-ERG1/Kv11.1 (Millipore, catalogue number: AB5930). Bound antigens were detected using Alexa 488-conjugated donkey anti-rabbit IgG (H+L) (Thermo Fisher Scientific, catalogue number: A21206) and Alexa 568-coupled donkey anti-mouse IgG (H+L) (Thermo Fisher Scientific, catalogue number: A10037). These secondary antibodies were diluted 1:400 in PBS. Hoechst 33342 ([…]; Thermo Fisher Scientific) was used to counterstain nuclei. Stained cells were visualized using a digital color camera-equipped fluorescence microscope (Nikon Eclipse 80i; Nikon Instruments Europe, Amstelveen, The Netherlands). To assess their proliferation rate, […] were cultured at low density in medium with or without 100 ng/ml Dox. […]

[2] = tested on: iaCMCs at day 6 of differentiation; test: Optical voltage mapping of iaCMC-d6 cultures exposed to astemizole, 1-Hz pacing; format: cell-based, rat
Experimental: For studying AP propagation in confluent monolayer cultures, cells were seeded at a density of 8×10^5 cells/well in 24-well cell culture plates onto bovine fibronectin-coated round glass coverslips (15 mm diameter) and subjected to optical voltage mapping using di-4-ANEPPS (Thermo Fisher Scientific) as fluorescent voltage indicator as described previously (Bingen et al., 2014). The measurements were carried out at 37° C. on 9-day-old naCMC and nvCMC cultures and on iaCMCs that had been maintained for 0, 3, 6, 9 and 12 days in Dox-free medium. Optical signals were captured using a MiCAM ULTIMA-L imaging system (SciMedia, Costa Mesa, Calif.). Optical traces were analyzed using Brain Vision Analyzer 1208 software (Brainvision, Tokyo, Japan). To minimize noise artifacts, calculations were based on the average of the signals at a selected pixel and its eight nearest neighbors. CV and APD at different percentages of repolarization were determined using cardiomyocyte cultures showing uniform AP propagation and 1:1 capture after 1-Hz local electrical stimulation with an epoxy-coated bipolar platinum electrode delivering square 10-ms, 8-V suprathreshold electrical impulses via a STG 2004 stimulus generator and MC Stimulus II software (both from Multi Channel Systems). Burst pacing with a cycle length of 20 to 100 ms was used to induce reentry. […] To facilitate comparison of the APD, the amplitude of the optical signal traces was normalized for all samples within a given experiment.

[3] = tested on: confluent monolayers of iaCMCs; test: In vitro AF model: induction of reentry by burst pacing in confluent iaCMC monolayers; format: cell-based, rat; settings: 100 nM tertiapin, iaCMCs at day 6, 9 or 12 of differentiation
Experimental: (§1) For studying AP propagation in confluent monolayer cultures, cells were seeded at a density of 8×10^5 cells/well in 24-well cell culture plates onto bovine fibronectin-coated round glass coverslips (15 mm diameter) and subjected to optical voltage mapping using di-4-ANEPPS (Thermo Fisher Scientific) as fluorescent voltage indicator as described previously (Bingen et al., 2014). The measurements were carried out at 37° C. on 9-day-old naCMC and nvCMC cultures and on iaCMCs that had been maintained for 0, 3, 6, 9 and 12 days in Dox-free medium. Optical signals were captured using a MiCAM ULTIMA-L imaging system (SciMedia, Costa Mesa, Calif.). Optical traces were analyzed using Brain Vision Analyzer 1208 software (Brainvision, Tokyo, Japan). To minimize noise artifacts, calculations were based on the average of the signals at a selected pixel and its eight nearest neighbors. CV and APD at different percentages of repolarization were determined using cardiomyocyte cultures showing uniform AP propagation and 1:1 capture after 1-Hz local electrical stimulation with an epoxy-coated bipolar platinum electrode delivering square 10-ms, 8-V suprathreshold electrical impulses via a STG 2004 stimulus generator and MC Stimulus II software (both from Multi Channel Systems). Burst pacing with a cycle length of 20 to 100 ms was used to induce reentry. […]

[4] = tested on: iaCMCs at day 9 of differentiation; test: Optical voltage mapping of tertiapin-treated iaCMC-d9 monolayers, 1-Hz pacing; format: cell-based, rat; settings: tertiapin (100 nM), iaCMCs cultured 9 days without Dox
Experimental: as §1

confluent naCMC cultures = settings: naCMCs; Bingen et al., 2013; cited from earlier work

## C[C@H](Cc1ccc2c(c1)OC(C(=O)[O-])(C(=O)[O-])O2)NC[C@H](O)c1cccc(Cl)c1.[Na+].[Na+] [CL316243]
[1]
  Ucp1 transcript levels: increased
  glycerol production: increased

## C[C@H]1c2cccc(O)c2C(=O)C2=C(O)[C@]3(O)C(=O)C(C(N)=O)=C(O)[C@@H](N(C)C)[C@@H]3[C@@H](O)[C@@H]21 [Dox, doxycycline]
iaCMCs
  average doubling time: 38 h
  iaCMCs positive for the proliferation marker Ki-67: 72.2±8.1%

## COc1ccc(CCN2CCC(Nc3nc4ccccc4n3Cc3ccc(F)cc3)CC2)cc1 [astemizole]
[2]; 0.1 µM
  conduction velocity (CV): 14.8 ± 2.8 cm/s
[2]; 100 nM astemizole, 30 minutes, iaCMC-d6, 1-Hz pacing, N=6, vehicle 21.5±1.0
  APD at 40% repolarization (APD40): 30.2 ± 2.1 ms
[2]; 100 nM astemizole, 30 minutes, iaCMC-d6, 1-Hz pacing, N=6, vehicle 88.7±5.4
  APD at 90% repolarization (APD90): 110.9 ± 4.2 ms

## NC[C@H](O)c1ccc(O)c(O)c1 [noradrenaline]
[1]
  Ucp1 transcript levels: increased
  glycerol production: increased

## tertiapin (ALCNCNRIIIPHMCWKKCGKK)
[3]
  inducibility of reentry by burst pacing: no longer possible to induce reentry
[4]
  effect on APD: strong increase
Confluent naCMC cultures
  termination of reentrant circuits (rotors) by prolonging APD: could be terminated
